Results taken from US20130224110A1, “USE OF ADENOSINE RECEPTOR SIGNALING TO MODULATE PERMEABILITY OF BLOOD-BRAIN BARRIER” (CORNELL UNIVERSITY, priority 2010, published 2013).

Assays:
blood brain barrier = test: Fluorescently labeled dextran extravasation into mouse brain (fluorimetry); assay type: in vivo, mice
Procedure: The adenosine receptor agonists NECA, CCPA, CGS 21860, and SCH 58261 (Tocris, Ellisville, Mo.) were each dissolved in DMSO then diluted in PBS to the desired concentration; in most cases final DMSO concentrations were <0.5% (vol/vol). Lexiscan (Regadenoson; TRC, Inc., Toronto) was dissolved in PBS. For vehicle controls, DMSO was diluted in PBS to the same concentration. Dehydrated dextrans labeled with either FITC or Texas Red (Invitrogen, Carlsbad, Calif.) were re-suspended in PBS to 10 mg/ml. All experiments involving dextran injection used 1.0 mg dextran in PBS. In experiments where drug and dextran were injected concomitantly, 1.0 mg of dextran was mixed with the drug to the desired concentration in a final volume of 200 μl. In dose-response experiments, drugs and dextrans were injected concomitantly. All injections, except injections of SCH 58261, were retro-orbital i.v. with a 27-gauge needle. In the SCH 58261 experiment, SCH 58261 injections, 1 mg/kg, were intraperitoneal and mice were pre-dosed with this concentration daily for 4 days prior to the day of the experiment. An additional injection was administered at the time of the experiment. Vehicle/drug and dextrans were injected on day 5 and tissues were collected 3 h after vehicle/drug administration. In Lexiscan experiments, Lexiscan was administered i.v. with 3 injections, 5 min apart and tissues were collected at 15 min unless otherwise indicated.
In dose-response experiments and experiments with the A1 AR and A2A AR knock-out mice, drugs and dextrans were injected concomitantly. After 3 h, the mice were anesthetized with ketamine/xylazine and subjected to a nose cone containing isoflurane. They were perfused with 25-50 ml ice-cold PBS through the left ventricle of the heart then decapitated. Their brains were removed, weighed and frozen for later analysis.
Ice-cold 50 mMTris-Cl (pH 7.6) was added to frozen brains (100 μl per 100 mg brain) and were to thawed on ice. They were homogenized with a dounce homogenizer and centrifuged at […] in a microfuge for 30 min at room temperature (rt). The supernatants were transferred to new tubes and an equal volume absolute methanol was added. The samples were centrifuged again at […] for 30 min at rt. Supernatant (200 μl) was transferred to a Corning costar 96 well black polystyrene assay plate (clear bottom). Additionally, a series of standards containing 0.001-10 pg/ml dextran in 50% Tris-Cl/50% absolute methanol (vol/vol) was added to each plate. Absolute concentrations of dextrans were derived from these standard curves. Fluorimetric analysis was performed on a BioTek (Winooski, Vt.) Synergy 4. FITC-dextran was detected at 488/519 (excitation/emission) and Texas Red-dextran was detected at 592/618.

hCMEC/D3 cells = test: Jurkat cell migration across hCMEC/D3 transwell in vitro BBB; assay type: cell-based, human; details: 24 hours
Procedure: hCMEC/D3 cells were seeded onto Transwell and allowed to grow to confluencey. 2×10^6 Jurkat cells were added to the upper chamber with or without NECA (general adenosine receptor [AR] agonist), CCPA (A1 AR agonist), CGS 21860 (A2A AR agonist), or DMSO vehicle. After 24 hours, migrated cells in the lower chamber were counted. Values are relative to the number of cells that migrate through non-[…]3 seeded transwells.

Z310 cells = test: Jurkat cell migration across Z310 choroid plexus cell transwell; assay type: cell-based, murine; details: 24 hours, n=1
Procedure: To test the hypothesis, Transwell membranes were seeded with Z310 cells and allowed to grow to confluencey. 2×10^6 Jurkat cells were added to the upper chamber with or with out NECA (n=1, general AR agonist), CCPA (n=1, A1 AR agonist), CGS 21860 (n=1, A2A AR agonist), or DMSO vehicle(n=1). After 24 hours, migrated cells in the lower chamber were counted. Values are relative to the number of cells that migrate through non-Z310 seeded transwells and the results are shown in FIG. 12.

Bend.3 cells [1] = test: Transendothelial cell electrical resistance (TEER) assay; assay type: cell-based; details: mouse BEC monolayers, 1 μM, vs vehicle or media alone
Procedure: Bend.3 cells were grown in ATCC-formulated DMEM supplemented with 10% FBS on 24-well transwell inserts, 8 μm pore size (BD Falcon, Bedford, Mass.) until a monolayer was established. TEER was assessed using a Voltohmeter (EVOMX, World Precision Instruments, Sarasota, Fla.). Background resistance from un-seeded transwells was subtracted from recorded values to determine absolute TEER values. Change in absolute TEER from T0 for each individual transwell was expressed as percentage change and then averaged for each treatment group.

Bend.3 cells [2] = test: Albumin uptake assay; assay type: cell-based, mouse; details: BECs, 1 μM, 30 minutes, vs media and vehicle
Procedure: Bend.3 cells grown on collagen coated coverslips were incubated with albumin-alexafluor 594 (50 mg/ml) (Invitrogen) and either media alone, DMSO vehicle, NECA (1 μM), or Lexiscan (1 μM) for 30 minutes. Albumin uptake was visualized (albumin=red) utilizing the Zeiss Axio Imager M1 fluorescent microscope. Total albumin fluorescence was recorded using Zeiss Axio Vision software, and measured utilizing Image-J software.

Bend.3 cells [3] = test: Tight junction molecule staining (ZO-1, Claudin-5, Occludin); assay type: cell-based, mouse; details: 1 μM, 1 h
Procedure: Bend.3 cells grown on collagen coated coverslips were incubated with DMSO vehicle, NECA (1 μM), or Lexiscan (1 μM) for 1 h. Cells were washed with PBS, fixed with 4% paraformaldehyde, and permeabilized with 0.5% Triton-X in PBS. Cells were blocked with PBS/BSA/goat serum and then stained with antibodies (Invitrogen) against either ZO-1 (1A12), Claudin-5 (34-1600), or Occludin (3F10). Following a wash step, cells were incubated with either goat anti-rabbit IgTexas Red-X or goat anti-mouse IgCy5 (Invitrogen). Cover slips were washed and mounted on slides with ProlongGold containing DAPI. Images were obtained on a Zeiss Axio Imager M1 fluorescent microscope.

| SMILES | BBB permeability after NECA administration with A2A blockade (blood brain barrier; A1 AR−/− mice pre-treated with the antagonist before NECA) | entry of 10,000 Da FITC-dextran into brain (blood brain barrier; WT mice, 1 mg/kg intraperitoneal daily for 4 days plus day of experiment) | lymphocyte (Jurkat) migration across the in vitro BBB (hCMEC/D3 cells) | lymphocyte (Jurkat) migration across the CP (Z310 cells) | levels of i.v.-administered dextrans in brain compared to wild type mice (blood brain barrier; A1−/− and A2A−/− mice, i.v., 3 h) | FITC-dextran extravasation into brain (pilot experiment, data not shown) (blood brain barrier; CD73−/− mice, 10,000 Da FITC-dextran i.v.) | time of maximum entry of labeled dextran into the CNS post-treatment (blood brain barrier; WT mice, 0.08 mg/kg i.v., dextran co-administered at T0) [h] | time by which barrier permeability returns to baseline (blood brain barrier; WT mice, 0.08 mg/kg i.v., dextran given at indicated times after treatment) [h] | effect of higher concentrations on dextran entry (blood brain barrier; WT mice, doses above 0.08 mg/kg) | dose giving maximum entry of dextrans into the CNS (blood brain barrier; WT mice, i.v., 3 h) [mg/kg] | CNS entry of 10,000 Da and 70,000 Da dextrans (blood brain barrier; WT mice, i.v., 3 h, varying dose, vs vehicle) | TEER (Bend.3 cells [1]) | rate of fluorescently-labeled albumin uptake (Bend.3 cells [2]) | ZO-1 and claudin-5 expression (Bend.3 cells [3]) | occludin expression (Bend.3 cells [3]) |
| --- | --- | --- | --- | --- | --- | --- | --- | --- | --- | --- | --- | --- | --- | --- | --- |
| Nc1nc2c(cnn2CCc2ccccc2)c2nc(-c3ccco3)nn12 [SCH58261, 2-(2-Furanyl)-7-(2-phenylethyl)-7H-pyrazolo[4,3-e][1,2,4]triazolo[1,5-c]pyrimidin-5-amine] | no significant increase in BBB permeability was observed | significantly decreased entry of 10,000 Da FITC-dextran | – | – | – | – | – | – | – | – | – | – | – | – | – |
| CCNC(=O)[C@H]1O[C@@H](n2cnc3c(N)ncnc32)[C@H](O)[C@@H]1O [NECA, 5′-N-ethylcarboxamido adenosine] | – | – | induced some migration | induced migration | significantly lower levels | dramatic increase in FITC-dextran extravasation | 4 to 6 | 8 to 18 | no additional effect or show diminished efficacy | 0.08 | dose-dependent increases in CNS entry | decreases in TEER | did not affect the rate of fluorescently-labeled albumin uptake | discreet alterations in ZO-1 and claudin-5 | severely diminished occludin expression |
